Experimental data as given in BindingDB's records for PubMed 20126400 (University of Oklahoma, 2010).

Columns and labels:
Assay in all cases: Ray2010 Assay 74
[1] = target: 5-hydroxytryptamine receptor 2A (Homo sapiens, UniProt P28223)
Excerpt: (§1) Table S2 shows raw Ki data for the current study combined with data collected from the literature for the ten additional compounds.

[2] = target: 5-hydroxytryptamine receptor 5A (Homo sapiens, UniProt P47898)
Excerpt: as §1

[3] = target: T1, Alpha-1A adrenergic receptor (Homo sapiens, UniProt P35348)
T1 sequence (P35348 whole entry): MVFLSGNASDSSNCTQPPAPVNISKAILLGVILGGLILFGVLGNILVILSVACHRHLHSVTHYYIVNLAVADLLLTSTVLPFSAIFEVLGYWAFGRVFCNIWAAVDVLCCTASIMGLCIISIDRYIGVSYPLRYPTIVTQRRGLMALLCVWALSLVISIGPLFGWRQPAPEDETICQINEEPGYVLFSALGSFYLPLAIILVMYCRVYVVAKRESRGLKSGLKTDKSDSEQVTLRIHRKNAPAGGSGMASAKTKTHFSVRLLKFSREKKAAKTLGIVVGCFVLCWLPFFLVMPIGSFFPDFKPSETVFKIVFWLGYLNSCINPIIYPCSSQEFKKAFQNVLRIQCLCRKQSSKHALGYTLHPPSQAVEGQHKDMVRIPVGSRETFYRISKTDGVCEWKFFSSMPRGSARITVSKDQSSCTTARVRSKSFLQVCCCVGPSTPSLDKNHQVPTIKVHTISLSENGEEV
Excerpt: as §1

[4] = target: T2, Alpha-2A adrenergic receptor (Homo sapiens, UniProt P08913)
T2 sequence (P08913 whole entry): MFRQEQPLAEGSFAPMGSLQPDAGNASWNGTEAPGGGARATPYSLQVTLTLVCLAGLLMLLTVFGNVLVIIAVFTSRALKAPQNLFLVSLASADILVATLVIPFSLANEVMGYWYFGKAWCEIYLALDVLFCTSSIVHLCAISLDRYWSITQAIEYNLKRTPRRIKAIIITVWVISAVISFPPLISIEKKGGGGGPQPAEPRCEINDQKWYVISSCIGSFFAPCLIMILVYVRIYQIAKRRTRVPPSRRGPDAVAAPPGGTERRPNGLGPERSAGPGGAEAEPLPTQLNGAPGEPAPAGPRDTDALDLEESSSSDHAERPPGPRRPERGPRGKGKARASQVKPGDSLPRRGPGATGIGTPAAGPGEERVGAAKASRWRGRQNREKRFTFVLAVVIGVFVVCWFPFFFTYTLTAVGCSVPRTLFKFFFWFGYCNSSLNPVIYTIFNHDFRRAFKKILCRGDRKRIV
Excerpt: as §1

[5] = target: T3, D(4) dopamine receptor (Homo sapiens, UniProt P21917)
T3 sequence (P21917 whole entry): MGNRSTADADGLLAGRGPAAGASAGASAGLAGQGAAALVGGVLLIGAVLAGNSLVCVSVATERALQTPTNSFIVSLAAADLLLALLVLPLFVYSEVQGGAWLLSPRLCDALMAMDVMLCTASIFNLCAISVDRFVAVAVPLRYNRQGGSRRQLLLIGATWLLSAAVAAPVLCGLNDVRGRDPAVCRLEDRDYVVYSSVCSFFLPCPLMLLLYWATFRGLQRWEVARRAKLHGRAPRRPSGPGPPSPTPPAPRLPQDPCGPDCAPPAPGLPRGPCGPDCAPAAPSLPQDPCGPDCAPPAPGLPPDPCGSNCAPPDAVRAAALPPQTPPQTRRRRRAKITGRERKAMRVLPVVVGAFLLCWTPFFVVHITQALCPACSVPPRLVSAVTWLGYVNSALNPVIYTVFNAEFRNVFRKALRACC
Excerpt: as §1

[6] = target: T4, Gamma-aminobutyric acid receptor subunit alpha-1 (Homo sapiens, UniProt P14867)
T4 sequence (P14867 whole entry): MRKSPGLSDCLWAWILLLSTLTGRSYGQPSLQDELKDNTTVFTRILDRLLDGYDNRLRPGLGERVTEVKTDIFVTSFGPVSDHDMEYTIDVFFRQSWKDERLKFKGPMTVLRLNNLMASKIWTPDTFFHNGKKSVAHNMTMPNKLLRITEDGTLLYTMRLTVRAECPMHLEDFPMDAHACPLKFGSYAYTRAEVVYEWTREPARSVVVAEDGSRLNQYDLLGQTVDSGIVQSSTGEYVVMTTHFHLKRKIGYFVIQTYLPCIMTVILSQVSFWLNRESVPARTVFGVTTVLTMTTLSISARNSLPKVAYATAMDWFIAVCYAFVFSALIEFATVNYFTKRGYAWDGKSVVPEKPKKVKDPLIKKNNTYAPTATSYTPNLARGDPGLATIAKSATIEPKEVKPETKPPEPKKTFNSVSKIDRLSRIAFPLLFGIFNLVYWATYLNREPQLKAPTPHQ
Excerpt: as §1

[7] = target: Histamine H2 receptor (Homo sapiens, UniProt P25021)
Sequence of Histamine H2 receptor (P25021 whole entry): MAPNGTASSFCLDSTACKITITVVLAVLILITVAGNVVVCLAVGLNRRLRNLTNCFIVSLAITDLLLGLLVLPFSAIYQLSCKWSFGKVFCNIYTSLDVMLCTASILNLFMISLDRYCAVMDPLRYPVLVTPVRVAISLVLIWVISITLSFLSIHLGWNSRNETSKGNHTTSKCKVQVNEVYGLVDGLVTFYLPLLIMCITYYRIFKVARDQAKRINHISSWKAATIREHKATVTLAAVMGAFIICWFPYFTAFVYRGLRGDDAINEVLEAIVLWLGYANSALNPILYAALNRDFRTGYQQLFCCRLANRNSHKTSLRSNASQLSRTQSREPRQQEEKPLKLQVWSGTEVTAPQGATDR
Excerpt: as §1

[8] = target: Sodium-dependent noradrenaline transporter (Homo sapiens, UniProt P23975)
Sequence of Sodium-dependent noradrenaline transporter (P23975 whole entry): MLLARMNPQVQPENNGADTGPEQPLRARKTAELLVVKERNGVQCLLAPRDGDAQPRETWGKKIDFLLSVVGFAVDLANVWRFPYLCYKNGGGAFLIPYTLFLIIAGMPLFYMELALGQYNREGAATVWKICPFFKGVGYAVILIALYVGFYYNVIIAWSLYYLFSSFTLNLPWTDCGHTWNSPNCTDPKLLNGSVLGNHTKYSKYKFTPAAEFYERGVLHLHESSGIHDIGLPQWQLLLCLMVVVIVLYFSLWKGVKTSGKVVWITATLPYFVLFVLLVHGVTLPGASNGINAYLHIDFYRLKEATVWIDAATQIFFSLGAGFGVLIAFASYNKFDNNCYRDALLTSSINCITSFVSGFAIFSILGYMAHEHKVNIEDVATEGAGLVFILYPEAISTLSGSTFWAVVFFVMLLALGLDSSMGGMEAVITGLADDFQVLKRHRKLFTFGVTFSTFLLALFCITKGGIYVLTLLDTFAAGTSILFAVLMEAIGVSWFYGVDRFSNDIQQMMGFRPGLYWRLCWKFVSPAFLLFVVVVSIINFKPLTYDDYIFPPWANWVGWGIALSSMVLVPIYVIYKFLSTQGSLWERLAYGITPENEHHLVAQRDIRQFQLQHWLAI
Excerpt: as §1

[9] = target: Sodium-dependent serotonin transporter (Homo sapiens, UniProt P31645)
Sequence of Sodium-dependent serotonin transporter (P31645 whole entry): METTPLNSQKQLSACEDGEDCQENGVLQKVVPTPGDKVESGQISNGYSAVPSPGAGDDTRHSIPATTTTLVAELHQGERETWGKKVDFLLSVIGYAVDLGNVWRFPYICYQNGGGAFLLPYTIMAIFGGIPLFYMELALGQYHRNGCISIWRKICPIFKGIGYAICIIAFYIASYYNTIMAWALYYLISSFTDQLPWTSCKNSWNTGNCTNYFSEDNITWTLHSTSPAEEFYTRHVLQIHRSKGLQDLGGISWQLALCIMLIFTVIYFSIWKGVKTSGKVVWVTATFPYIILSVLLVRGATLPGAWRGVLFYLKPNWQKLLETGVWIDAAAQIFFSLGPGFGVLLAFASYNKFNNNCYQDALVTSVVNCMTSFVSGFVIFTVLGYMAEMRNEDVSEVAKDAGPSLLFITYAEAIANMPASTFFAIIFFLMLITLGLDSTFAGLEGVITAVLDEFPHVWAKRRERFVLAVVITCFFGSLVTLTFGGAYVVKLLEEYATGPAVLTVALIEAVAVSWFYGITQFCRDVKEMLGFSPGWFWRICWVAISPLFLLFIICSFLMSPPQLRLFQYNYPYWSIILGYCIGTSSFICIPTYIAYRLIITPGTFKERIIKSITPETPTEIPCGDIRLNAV
Excerpt: as §1

[10] = target: T5, Muscarinic acetylcholine receptor M1 (Homo sapiens, UniProt P11229)
T5 sequence (P11229 whole entry): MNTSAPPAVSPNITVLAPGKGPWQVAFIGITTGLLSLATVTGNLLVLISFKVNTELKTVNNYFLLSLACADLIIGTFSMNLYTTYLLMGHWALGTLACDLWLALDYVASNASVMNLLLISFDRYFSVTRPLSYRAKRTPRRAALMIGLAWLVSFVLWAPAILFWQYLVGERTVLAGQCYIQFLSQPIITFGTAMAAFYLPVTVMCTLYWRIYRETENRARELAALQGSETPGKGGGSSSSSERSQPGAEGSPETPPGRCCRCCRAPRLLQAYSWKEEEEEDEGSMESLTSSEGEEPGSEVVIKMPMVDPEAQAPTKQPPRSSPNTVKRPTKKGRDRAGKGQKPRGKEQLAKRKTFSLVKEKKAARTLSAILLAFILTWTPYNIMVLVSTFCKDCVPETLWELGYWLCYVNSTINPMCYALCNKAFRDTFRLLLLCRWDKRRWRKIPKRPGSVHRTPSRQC
Excerpt: as §1

Sequence of 5-hydroxytryptamine receptor 5A (P47898 whole entry): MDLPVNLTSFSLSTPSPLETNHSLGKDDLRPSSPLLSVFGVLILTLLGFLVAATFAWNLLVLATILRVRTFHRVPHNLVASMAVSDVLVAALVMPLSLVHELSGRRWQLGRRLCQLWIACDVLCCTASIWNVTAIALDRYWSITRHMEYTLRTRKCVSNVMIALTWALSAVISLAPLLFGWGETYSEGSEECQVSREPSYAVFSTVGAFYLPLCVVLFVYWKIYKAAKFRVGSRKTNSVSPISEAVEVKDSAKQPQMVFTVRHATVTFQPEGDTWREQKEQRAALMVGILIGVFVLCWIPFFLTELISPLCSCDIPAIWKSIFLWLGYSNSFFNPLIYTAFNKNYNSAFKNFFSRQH
Sequence of 5-hydroxytryptamine receptor 2A (P28223 whole entry): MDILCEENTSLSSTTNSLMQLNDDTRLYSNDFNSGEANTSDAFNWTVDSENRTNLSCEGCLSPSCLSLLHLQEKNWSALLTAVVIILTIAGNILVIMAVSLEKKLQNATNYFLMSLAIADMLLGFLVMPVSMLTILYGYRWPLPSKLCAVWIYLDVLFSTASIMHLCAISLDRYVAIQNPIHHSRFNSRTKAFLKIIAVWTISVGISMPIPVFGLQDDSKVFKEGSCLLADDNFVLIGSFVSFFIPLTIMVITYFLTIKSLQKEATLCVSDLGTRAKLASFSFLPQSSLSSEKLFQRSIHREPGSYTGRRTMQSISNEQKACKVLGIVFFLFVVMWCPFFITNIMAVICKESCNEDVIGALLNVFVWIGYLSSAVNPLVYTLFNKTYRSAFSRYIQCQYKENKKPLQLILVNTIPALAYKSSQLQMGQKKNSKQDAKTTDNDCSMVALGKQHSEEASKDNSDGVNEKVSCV

SMILES	Ki [1]	Ki [2]	Ki [3]	Ki [4]	Ki [5]	Ki [6]	Ki [7]	Ki [8]	Ki [9]	Ki [10]
CC(N)Cc1ccc2c(c1)OCO2 (centres undefined)	> 10 µM	> 10 µM	> 10 µM	1.66 µM	> 10 µM	> 10 µM	> 10 µM	> 10 µM	> 10 µM	
CCOc1cc(OC)c(CC(C)N)cc1OC (centres undefined)	3.95 µM	> 10 µM	> 10 µM	> 10 µM	> 10 µM	> 10 µM	> 10 µM	> 10 µM	> 10 µM	> 10 µM
COc1cc(CC(C)N)cc(OC)c1OC (centres undefined)	> 10 µM	> 10 µM	> 10 µM	2.07 µM	> 10 µM	> 10 µM	> 10 µM	> 10 µM	> 10 µM	
COc1cc(CCN)c(OC)cc1Br	0.0276 µM	> 10 µM	> 10 µM	0.309 µM	> 10 µM	> 10 µM	> 10 µM	> 10 µM	> 10 µM	> 10 µM
CC[C@H]1C[C@@H]2C[C@H]3c4[nH]c5ccc(OC)cc5c4CCN(C2)[C@@H]13	14.1 µM				> 10 µM	> 10 µM				22.5 µM
CCc1cc(OC)c(CC(C)N)cc1OC (centres undefined)	0.0273 µM	> 10 µM	> 10 µM	1.28 µM	> 10 µM	> 10 µM	> 10 µM	> 10 µM	> 10 µM	
CCSc1cc(OC)c(CC(N)CC)cc1OC (centres undefined) [1-(4-Ethylsulfanyl-2,5-dimethoxy-benzyl)-propylamine]	0.274 µM	1.59 µM	> 10 µM	> 10 µM	> 10 µM	> 10 µM	> 10 µM	> 10 µM	> 10 µM	> 10 µM
CN(C)CCc1c[nH]c2ccccc12 [2-(1H-indol-3-yl)-N,N-dimethylethanamine]	2.32 µM	0.611 µM	1.75 µM	1.56 µM	> 10 µM	> 10 µM	> 10 µM	> 10 µM	3.74 µM	> 10 µM
COc1cc(CC(C)N)c(OC)cc1Br (stereo not drawn) [2-(4-Bromo-2,5-dimethoxy-phenyl)-1-methyl-ethylamine((-)-DOB)]		5.31 µM	> 10 µM	4.27 µM	> 10 µM	> 10 µM	> 10 µM	> 10 µM	8.54 µM	> 10 µM
NCCc1c2c(c(Br)c3c1OCC3)OCC2 [2-(8-Bromo-2,3,6,7-tetrahydro-benzo[1,2-b;4,5-b']difuran-4-yl)-ethylamine]	0.0116 µM	> 10 µM	> 10 µM	0.145 µM	> 10 µM	> 10 µM	> 10 µM	> 10 µM	> 10 µM	
CCc1[nH]c2ccc(OC)cc2c1CCN(C)C [2-ethyl-5-methoxy-N,N-dimethyltryptamine]	> 10 µM				> 10 µM					> 10 µM
COC(=O)[C@@H]1C[C@H](OC(C)=O)C(=O)[C@H]2[C@@]1(C)CC[C@H]1C(=O)O[C@H](c3ccoc3)C[C@]21C [2S,4aR,6a(R,7R,9S,10aS,10bR)-9-(acetyloxy)-2-(furan-3-yl)dodecahydro-6a,10b-dimethyl-4,10-dioxo-2H-naphtho[2,1-c]pyran-7-carboxylic acid methyl ester]	> 10 µM	> 10 µM	> 10 µM		> 10 µM				> 10 µM	> 10 µM
COc1ccc2[nH]cc(CCN(C)C)c2c1 [3-(2-DIMETHYLAMINOETHYL)-5-METHOXYINDOLE]			> 10 µM	1.89 µM	3.12 µM	> 10 µM	> 10 µM	2.86 µM	2.03 µM	> 10 µM
CN(C)CCc1c[nH]c2cccc(O)c12 [4-hydroxy-N,N-dimethyltryptamine]			> 10 µM		> 10 µM	> 10 µM	> 10 µM	> 10 µM	0.852 µM	> 10 µM
COc1ccc2[nH]cc(CCN(C(C)C)C(C)C)c2c1 [5-meo-dipt]		> 10 µM	> 10 µM	> 10 µM	> 10 µM	> 10 µM	> 10 µM	> 10 µM	2.53 µM	> 10 µM
CN(C)CCc1c[nH]c2cc(F)ccc12 [6-f-dmt]		0.96 µM	0.173 µM	> 10 µM	1.45 µM	> 10 µM	0.925 µM	> 10 µM	0.145 µM	> 10 µM
COc1cc(OC)c(OC)cc1CC(C)N (stereo not drawn) [(+/-)1-Methyl-2-(2,4,5-trimethoxy-phenyl)-ethylamine]	0.584 µM	> 10 µM	> 10 µM	> 10 µM	> 10 µM		> 10 µM	> 10 µM	> 10 µM	
COc1ccc2[nH]c(C)c(CCN(C)C)c2c1 [[2-(5-Methoxy-2-methyl-1H-indol-3-yl)-ethyl]-dimethyl-amine (C2H2O)]	> 10 µM				> 10 µM					> 10 µM
CCN(CC)C(=O)[C@@H]1C=C2c3cccc4[nH]cc(c34)C[C@H]2N(C)C1 [[N-methyl-3H]LSD]			1.13 µM		0.158 µM	> 10 µM		> 10 µM	> 10 µM	
C[C@@H]1C[C@H](C)N1C(=O)C1C=C2c3cccc4[nH]cc(c34)C[C@H]2N(C)C1 (stereo partly drawn) [cis-2a]	0.0297 µM	0.0164 µM	0.529 µM			> 10 µM		> 10 µM	> 10 µM	
C[C@@H]1C[C@@H](C)N1C(=O)C1C=C2c3cccc4[nH]cc(c34)C[C@H]2N(C)C1 (some centres undefined) [rr-2b]	0.69 µM	0.0127 µM	5.19 µM			> 10 µM		> 10 µM	> 10 µM	
